# Patent US20180279615A1 (priority 2015, published 2018)
# System: Botrytis cinerea
# Experiment: Activity against the grey mold Botrytis cinerea in the microtiterplate test
# Type: cell-based
# Details: comparative examples, measured at 405 nm 7 days after inoculation
row,Compound,Growth (%) at 32 ppm
1,Cc1cc(C2=NC(C)(C)Cc3ccccc32)cnc1C,51%
2,"Cc1cc(C2=NC(C)(C)C(C)c3ccccc32)cnc1C (centres unmarked) [I-1, 1-(5,6-dimethyl-3-pyridyl)-3,3,4-trimethyl-4H-isoquinoline]",0%
